The source of these data is publication PMC7217877, “N-AS-triggered SPMs are direct regulators of microglia in a model of Alzheimer’s disease” (Nature Communications, 2020).

“And” between values parts separate entries of the source, which are not always exact repeats. Equal entries are not always repeated.

Holding throughout (assay type): cell-based, C57BL/6 mice
Common to all, as to conditions: Ab 10mM, replicates

Experiment [1] concerns astrocyte. As to the kind of experiment: western blotting for ac-S565 and total COX2 in primary cells. As to the method: (§1) To confirm the generation and roles of N-AS in neurons, cells from E18 C57BL/6 mice were prepared as previously described. Cortices were dissected and then dissociated followed by incubation in papain (Worthington) at 37 °C for 15 min. Neurons were plated on poly-L-lysine-coated coverslips with neuronal culture medium, serum-free Neurobasal medium (Gibco) containing 2% B27 supplements (Gibco), 1 mM Glutamax supplement (Gibco), and 100 U ml^−1 streptomycin/ 100 U ml^−1 penicillin (Gibco) at 37 °C in a humidified atmosphere of 5% CO2. Aβ 1–42 (10 μM, 24 h, Invitrogen, 03112) was exposed to neurons and the cells were analyzed for the generation and roles of N-AS. Primary astrocyte cultures were prepared from C57BL/6 mice as described previously. In brief, after removal of the meninges, postnatal day 7 (P7) mouse brain tissues were minced and incubated in a rocking water bath at 37 °C for 30 min in the presence of 0.25% trypsin-EDTA (Sigma-Aldrich). […] The human microglia treated with Aβ 1–42 and/or zileuton was incubated with N-AS (2.5 μM, 2 h, Sigma-Aldrich, 01912), and were analyzed for the generation and roles of N-AS.
Samples were lysed in RIPA buffer (Cell signaling Technologies), then subjected to SDS-PAGE and transferred to a nitrocellulose membrane. […] We performed densitometric quantification using the ImageJ software (National Institutes of Health). […]

For experiment [2], the system named is astrocyte. The experiment can be described thus: immunofluorescence of ac-S565 and COX2 in primary cells. As to the method: as §1, with “previously.” for “previously. In brief, after removal of the meninges, postnatal day 7 (P7) mouse brain tissues were minced and incubated in a rocking water bath at 37 °C for 30 min in the presence of 0.25% trypsin-EDTA (Sigma-Aldrich).”
(§2) Thioflavin S (Sigma-Aldrich) staining was carried out according to previously described procedures. […] The sections were analyzed with a laser-scanning confocal microscope (FV3000; Olympus) or with a BX51 microscope (Olympus). MetaMorph software (Molecular Devices) was used to quantification. Three-dimensional reconstruction of microglia was recorded and analyzed using IMARIS software (Bitplane)[11]. […]

For experiment [3], the system named is microglia. The experiment is described as above. On the procedure: as §1, with “previously.” for “previously. In brief, after removal of the meninges, postnatal day 7 (P7) mouse brain tissues were minced and incubated in a rocking water bath at 37 °C for 30 min in the presence of 0.25% trypsin-EDTA (Sigma-Aldrich).”
as §2

“Ab: Aβ 1–42 (Invitrogen, 03112) used to induce an AD environment in cells”: the “ac-S565 / total COX2, western blotting (Fig 3b)” value in experiment [1] was 0.1055 and 0.07523 and 0.08324 and 0.06718 and 0.09034 and 0.07923. In addition, the “ac-S565 with COX2, immunofluorescence quantification (Fig 3c)” value in experiment [2] was 0.03307 and 0.0783 and 0.03875 and 0.05053 and 0.0718 and 0.07636; in experiment [3], 0.1091 and 0.1473 and 0.02354 and 0.07315 and 0.06621 and 0.05168.
